Patent US9539298B2, “Lissencephaly therapeutic agent” (OSAKA CITY UNIVERSITY, priority 2010, dated 2017)

Tests used:
[1] = test system: LIS1 heterozygous mouse embryos; experiment: LIS1 protein in mouse embryo brains after SNJ-1945 intraperitoneal administration; type: in vivo
Protocol: A neo(−)129S-Pafah1b1^tm2Awb/J homozygous male mouse lacking neo gene was mated with five homozygous EII-Cre transgenic female mice (FVB/N-Tg (EIIa-cre) C5379Lmgd/J, The Jackson Laboratory) by raising them in the same mouse cage. In total, six sets of mouse cages were prepared for the mating experiment. The neo(−)129S-Pafah1b1^tm2Awb/J homozygous mouse were prepared in the same manner as above. Plug check (confirmation of mating) was carried out every morning between 7 and 10 am, thereby determining the gestation cycle. SNJ-1945 was dissolved in dimethyl sulfoxide (DMSO; Sigma, D8779) at a concentration of 100 mg/ml, and intraperitoneally injected to the pregnant mice so that the administration amount became 100 μg per gram of body weight upon Day 12 of embryo period (E12) (intraperitoneal administration). To determine the effect of SNJ-1945 administration, LIS1 proteins of normal mouse embryos and those of LIS1 heterozygous mouse embryos (administered with SNJ-1945) were measured. […]
Pregnant mice were killed by cervical fracture, and the mouse embryos were immediately isolated to obtain the brain tissues. For the measurement of LIS1 protein amount, the brain weights were immediately measured as soon as the brains were removed.

[2] = test system: fibroblasts derived from human lissencephaly patient (Lis1 +/−); experiment: Fluorescence immunostaining of fibroblasts derived from a human lissencephaly patient; type: cell-based; settings: 200 μM, two hours
Protocol: The establishment of fibroblasts was performed in the following manner. Under a germ-free condition, a portion of epidermis (5 mm square) was obtained from a lissencephaly patient. The obtained epidermis was transported for 4 hours at room temperature while stored in a culture solution (E-MEM (Wako Pure Chemical Industries, Ltd., 051-07615), 10% fetal bovine blood serum (Equitech-Bio Inc, SFBM30-1798, 1×L-glutamine (Gibco, 25030), 1× Pen-Strep (Gibco, 15140)) (*the culture solution with this formulation is used hereinafter). After transportation, the tissue fragment was cut into a 1 mm square, fixed to a culture flask (Becton Dickinson 353009), and cultured for three weeks in 6 ml of a culture solution. After the 3-week culture, the amplification of fibroblasts from the tissue fragment was confirmed; then, the fragment was washed with a phosphate buffer physiological saline solution (phosphate buffered saline, PBS (−), 137 mM NaCl, 2.7 mM KCl, 10 mM Na2HPO4, 1.8 mM KH2PO4, pH 7.4), and 0.5 ml of trypsin-EDTA (Gibco, 25200) was added, followed by reaction for 5 minutes at 37° C. to separate the cells. Then, 10 ml of a culture solution was added, and the fragment was transferred to a 10 cm petri dish (Greiner, 664-160) for culture.
To observe the cells with a microscope, the cells were cultured on cover glasses. The cover glasses (24×24 No. 1, Matsunami Glass Ind., Ltd.) were immersed in 0.1 M hydrochloric acid for 20 minutes. After washing with water, the cover glasses were placed in 70% ethanol, and kept in a clean bench. In the clean bench, each cover glass was placed on the bottom of each well of a 6-well plate (Falcon 353046). After the ethanol was dried, 0.5×10^5 fibroblasts per well were added and cultured for 16 hours, thereby adhering the cells onto the cover glasses.
A SNJ-1945-containing culture solution was prepared. […]

**Q.** Which results are given for `COCCOCCOC(=O)N[C@@H](CC(C)C)C(=O)N[C@@H](Cc1ccccc1)C(=O)C(=O)NC1CC1` [compound 17, ((1S)-1-((((1S)-1-Benzyl-2,3-dioxo-3-(cyclopropylamino)propyl)amino)carbonyl)-3-methylbutyl)carbamic acid 5-methoxy-3-oxapentyl ester]?
**A.** LIS1 protein amount in embryo brain ([1]; 100 μg per gram of body weight IP to pregnant mice, E12, FIG. 6): recovered to a substantially normal level; duration of the effect on LIS1 protein after a single dose ([1]; 100 μg/g IP to pregnant mice, E12): continued for at least three days; intracellular distribution of LIS1 ([2]; FIGS. 15 and 16): causes LIS1 to be accumulated around the nucleus or centrosome again; intracellular distribution of cytoplasmatic dynein ([2]; FIGS. 17 and 18): cytoplasmatic dynein became completely diffused again from the region around the nucleus to the cell marginal zone; intracellular distribution of β-COP-coated vesicles ([2]; FIGS. 19 and 20): β-COP-coated vesicles became distributed evenly from the region around the nucleus to the cell marginal zone again
